The record followed here is patent publication US8642630B2, “Endogeneous repair factor production accelerators” (Ono Pharmaceutical Co., Ltd., priority 2002, dated 2014).

In test [1] the test system is normal human umbilical cord vein vascular endothelial cells and normal human skin fibroblasts. Put plainly: Measurement of angiogenesis acceleration action (in vitro), hollow organ formation, Example 1. Type of test: cell-based. The method, then: An angiogenesis kit (manufactured by Kurabo; constituted from normal human umbilical cord vein vascular endothelial cells and normal human skin fibroblasts) was cultured for 3 hours, and then the culture medium (the medium for angiogenesis use attached to the angiogenesis kit was used as the culture medium and cultured at 37° C. under a moist environment of 5% carbon dioxide-95% air, and a carbon dioxide incubator BNA-121D was used as the incubator) was changed and an agent to be tested was added to each well (0.5 ml/well). The medium exchange was carried out also on the 3rd, 6th and 8th days after commencement of the culturing and the fresh agent to be tested was added. The kind and concentration of the agent to be tested were untreated, solvent (DMSO) 0.1%, Compound 1 10^−9, 10^−8 and 10^−7 mol/l, VEGF-A 0.1, 1 and 10 ng/ml and HGF 0.1, 1 and 10 ng/ml, and the culturing was carried out by using 3 wells for each concentration. Fixation was carried out 10 days after the commencement of culturing, and staining of hollow organ with anti-CD31 antibody was carried out by using a hollow organ staining kit (manufactured by Kurabo). As the evaluation, Chalkley Grid (a grid lens, manufactured by Kurabo) was mounted on the eyepiece of a microscope, and the hollow organ formation was evaluated by counting intersections of the randomly arrange points of Chalkley Grid with the formed hollow organ (by referring to the evaluation method of J. Pathol., 177, 275-283 (1995)). The counting was carried out at 12 positions per well, and the total was calculated.
As the agent to be tested, Compound 1 ((E)-[5-[2-[1-phenyl-1-(3-pyridyl)methylideneaminoxy]ethyl]-7,8-dihydronaphthalen-1-yloxy]acetic acid) was dissolved in dimethyl sulfoxide (DMSO) to prepare 10^−4, 10^−5 and 10^−6 mol/l solutions which were then used by diluting 1/1000 time with the culture medium.
As the VEGF-A (vascular endothelial growth factor-A), the 2 μg/ml solution of VEGF contained in the angiogenesis control reagent kit of Kurabo was diluted with the culture medium and used. […]

The next test relates to VEGF. Kind of test: Endogenous repair factor protein producing action (in vitro), VEGF by ELISA, Example 2. Type of test: cell-based, human. Conditions: 10^-7 mol/l. The method, then: An angiogenesis kit (manufactured by Kurabo; constituted from normal human umbilical cord vein vascular endothelial cells and normal human skin fibroblasts) was cultured for 3 hours, and then the culture medium (the medium for angiogenesis use attached to the angiogenesis kit was used as the culture medium and cultured at 37° C. under a moist environment of 5% carbon dioxide-95% air, and a carbon dioxide incubator BNA-121D was used as the incubator) was changed and an agent to be tested was added to each well (0.5 ml/well). The agent to be tested were solvent (DMSO) 0.1% and Compound 1 10^−7 mol/l, and the culturing was carried out by using 3 wells for each. Culture supernatants were collected before commencement of the culturing and 1, 2, 6, 24, 48 and 72 hours after the commencement. HGF and VEGF protein concentrations in the culture supernatants were measured by using an ELISA kit (R % D system-Funakoshi).
As the agent to be tested, Compound 1 ((E)-[5-[2-[1-phenyl-1-(3-pyridyl)methylideneaminoxy]ethyl]-7,8-dihydronaphthalen-1-yloxy]acetic acid) was dissolved in dimethyl sulfoxide (DMSO) to prepare 10^−4 mol/l solution which was then used by diluting 1/1000 time with the culture medium.
Results of the solvent control wells were compared with those of the wells treated with the agent to be tested by Dunnett's test (two-sided test). The significance level was set to 5%. […]
(In an ELISA, binding on a coated surface is turned into a signal by an enzyme label.)

Test [2] concerns rat leg ischemia (arteriosclerosis obliterans (ASO)) model. Put plainly: Rat leg ischemia (ASO) model; usefulness of topical administration, Example 6. Type of test: in vivo. Conditions: 0.1 mg, intramuscular administration into the ischemic left femoral part. As for the experimental part: Leg ischemia model was prepared by ligating rat left femoral artery. Blood flow in hind legs was measured by using Laser Doppler Imager (Moor Instruments) 1 week after the preparation, and the animals were divided into 4 groups (n=5) in such a manner that the average value of blood flow became almost uniform.
Starting on the next day of the grouping, 0.1 ml/site, 2 sites, of the agent to be tested was administered by intramuscular injection into ischemic regions of the left femoral adductor (polymer group, Compound 1 group, Compound 1 MS group) and normal region of the right shoulder upper arm (Compound 1 MS group), for once a week, 4 times in total as a solution to be tested. One week after completion of the final administration, blood flows of hind legs were measured by using Laser Doppler Imager (Moor Instruments), and blood flows of the treated leg (left leg) and untreated leg (right leg) were compared and examined.
• The polylactic acid-glycolic acid copolymer used in Preparation Example 2 was suspended in 0.2 w/v % Tween 80 solution (0.2 ml). In this connection, amount of the polylactic acid-glycolic acid copolymer is identical to the amount contained in Compound 1 MS (1 mg). Compound 1 (0.1 mg) Group: • Compound 1 (0.1 mg) was suspended in 0.2 w/v % Tween 80 solution (0.2 ml). […]

As for `O=C(O)COc1cccc2c1CCC=C2CCO/N=C(\c1ccccc1)c1cccnc1` [Compound 1, (E)-[5-[2-[1-phenyl-1-(3-pyridyl)methylideneaminoxy]ethyl]-7,8-dihydronaphthalen-1-yloxy]acetic acid], the “hollow organ formation (Chalkley Grid count), in words” value in test [1] (10^-8 and 10^-7 mol/l, 10 days of culturing, vs untreated wells, Dunnett's test, FIG. 1) was “accelerated hollow organ formation statistically significantly”. Also, the “angiogenesis accelerating effect, strength compared with positive control agents” value in test [1] (co-culture system of human vascular endothelial cells and human fibroblasts) was “strength equivalent to the positive control agents VEGF-A and HGF”. Also, the “production of VEGF protein, in words” value with VEGF (72 hours of culturing, vs solvent control) was “accelerated production of HGF protein and VEGF protein statistically significantly”. Moreover, the “VEGF protein concentration in culture supernatant” value with VEGF (after 72 hours of culturing, average of 3 wells ± SD) is 3034 ± 30 pg/mL. In test [2], the “increase in the blood flow, in words” value is “significant blood flow increasing action was not observed”. Further, the “Treated leg/untreated leg blood flow ratio” value in test [2] (once a week x4, 1 week after final administration) was found to be 60.5 ± 3.1%.
